Activity calls are given as the source filed them. The rule behind the calls is not given here.
Experiments:
MDA-MB-231 [1] = test: Antiproliferative activity against human MDA-MB-231 cells assessed as reduction in cell proliferation incubated for 48 hrs by CCK-8 assay; assay type: functional, cell-based; settings: MDA-MB-231, 48 h
SW480 = test: Antiproliferative activity against human SW480 cells assessed as inhibition of cell growth incubated for 48 hrs by CCK-8 assay; assay type: functional, cell-based; settings: SW480, 48 h
ASPC1 = test: Antiproliferative activity against human ASPC1 cells assessed as inhibition of cell growth incubated for 48 hrs by CCK-8 assay; assay type: functional, cell-based; settings: ASPC1, 48 h
BXPC-3 = test: Antiproliferative activity against human BXPC-3 cells assessed as inhibition of cell growth incubated for 48 hrs by CCK-8 assay; assay type: functional, cell-based; settings: BXPC-3, 48 h
SW1990 = test: Antiproliferative activity against human SW1990 cells assessed as inhibition of cell growth incubated for 48 hrs by CCK-8 assay; assay type: functional, cell-based; settings: SW1990, 48 h
[2] = Cytotoxicity against green monkey Vero cells assessed as inhibition of cell growth incubated for 48 hrs by CCK-8 assay; assay type: toxicity, cell-based; settings: African green monkey (Chlorocebus sabaeus)
[3] = Selectivity ratio of IC50 for cytotoxicity against green monkey Vero cells to IC50 for antiproliferative activity against human LoVo cells; assay type: toxicity, cell-based; settings: Vero cells versus LoVo cells, read-out: Ratio IC50
MDA-MB-231 [4] = test: Inhibition of colony formation in human MDA-MB-231 cells assessed as reduction in number of colonies at 1 uM incubated for 8 days by crystal violet staining based assay; assay type: functional, cell-based; settings: time 8.0 day
MDA-MB-231 [5] = test: Induction of morphological changes in human MDA-MB-231 assessed as cell rounding at 0.5 to 2 uM incubated for 48 hrs by microscopic analysis; assay type: functional, cell-based; settings: dose 0.5-2 µM
MDA-MB-231 [6] = test: Induction of morphological changes in human MDA-MB-231 assessed as cell contraction at 0.5 to 2 uM incubated for 48 hrs by microscopic analysis; assay type: functional, cell-based; settings: dose 0.5-2 µM
MDA-MB-231 [7] = test: Induction of morphological changes in human MDA-MB-231 assessed as loss of adhesion properties at 0.5 to 2 uM incubated for 48 hrs by microscopic analysis; assay type: functional, cell-based; settings: dose 0.5-2 µM
MDA-MB-231 [8] = test: Antiproliferative activity against human MDA-MB-231 cells assessed as inhibition of cell proliferation incubated for 1 day by CCK-8 assay; assay type: functional, cell-based; settings: MDA-MB-231, 24 h
MDA-MB-231 [9] = test: Antiproliferative activity against human MDA-MB-231 cells assessed as inhibition of cell proliferation incubated for 3 days by CCK-8 assay; assay type: functional, cell-based; settings: MDA-MB-231, 72 h
MDA-MB-231 [10] = test: Antiproliferative activity against human MDA-MB-231 cells assessed as inhibition of cell proliferation incubated for 4 days by CCK-8 assay; assay type: functional, cell-based; settings: MDA-MB-231, 96 h
HCT-116 = test: Antiproliferative activity against human HCT-116 cells assessed as inhibition of cell proliferation incubated for 3 days by CCK-8 assay; assay type: functional, cell-based; settings: HCT-116, 72 h
LoVo = test: Antiproliferative activity against human LoVo cells assessed as inhibition of cell proliferation incubated for 4 days by CCK-8 assay; assay type: functional, cell-based; settings: 96 h
Tubulin (Homo sapiens) [11] = molecular target: T1, Tubulin (Homo sapiens) (UniProt P68371+Q9H4B7+P0DPH7+P68366+Q13509+Q71U36+P04350+Q3ZCM7+P07437+P68363+Q9BQE3+Q6PEY2+Q13885+Q9BVA1+Q9BUF5); test: Disruption of microtubule network in human MDA-MB-231 cells assessed as disorganized microtubule network at 1 to 2 uM incubated for 24 hrs by DAPI staining based fluorescence microscopic analysis; assay type: cell-based; settings: dose 1-2 µM
Tubulin (Homo sapiens) [12] = molecular target: T1, Tubulin (Homo sapiens); test: Disruption of microtubule network in human MDA-MB-231 cells assessed as point-like fiber structure at 1 to 2 uM incubated for 24 hrs by DAPI staining based fluorescence microscopic analysis; assay type: cell-based; settings: dose 1-2 µM
MDA-MB-231 [13] = test: Induction of cell cycle arrest in human MDA-MB-231 cells assessed as decreased proportion of cells at G1 phase at 0.5 to 2 uM by flow cytometric analysis; assay type: functional, cell-based; settings: dose 0.5-2 µM
MDA-MB-231 [14] = test: Induction of apoptosis in human MDA-MB-231 cells assessed as nuclear shrinkage at 0.5 to 2 uM incubated for 24 hrs by Hoechst 33342 staining based fluorescence microscopic analysis; assay type: functional, cell-based; settings: dose 0.5-2 µM
MDA-MB-231 [15] = test: Induction of apoptosis in human MDA-MB-231 cells assessed as fragmented bright nuclei at 0.5 to 2 uM incubated for 24 hrs by Hoechst 33342 staining based fluorescence microscopic analysis; assay type: functional, cell-based; settings: dose 0.5-2 µM
MDA-MB-231 [16] = test: Induction of apoptosis in human MDA-MB-231 cells assessed as upregulation of cleaved-caspase 3 level by Western blotting analysis; assay type: functional, cell-based; settings: dose 0.5-2 µM
MDA-MB-231 [17] = test: Induction of apoptosis in human MDA-MB-231 cells assessed as decrease in HIF-1a level by Western blotting analysis; assay type: functional, cell-based; settings: dose 0.5-2 µM
MDA-MB-231 [18] = test: Induction of ROS generation in human MDA-MB-231 cells assessed as increase in green fluorescence at 1 uM incubated for 24 hrs by DCFH-DA staining based flow cytometric analysis (reference value: 62.3 %); assay type: functional
MDA-MB-231 [19] = test: Induction of ROS generation in human MDA-MB-231 cells assessed as increase in green fluorescence at 2 uM incubated for 24 hrs by DCFH-DA staining based flow cytometric analysis (reference value: 62.3 %); assay type: functional

IC50 (MDA-MB-231 [1]): 0.707 µM
IC50 (SW480): 0.687 µM
IC50 (ASPC1): 1.11 µM
IC50 (BXPC-3): 1.27 µM
IC50 (SW1990): 0.927 µM
IC50 (MDA-MB-231 [8]): 1.64 µM
IC50 (MDA-MB-231 [9]): 0.561 µM
IC50 (MDA-MB-231 [10]): 0.938 µM
IC50 (HCT-116): 0.393 µM
IC50 (LoVo): 0.629 µM
Activity (Tubulin (Homo sapiens) [11]): Active
Activity (Tubulin (Homo sapiens) [12]): Active
Compound: O=C(/C=C/c1cn(S(=O)(=O)c2ccc([N+](=O)[O-])cc2)c2ccc(N3CCOCC3)cc12)c1cccnc1
IC50 at 48 h [2]: 2.31 µM
selectivity ratio [3]: 5
inhibition (MDA-MB-231 [4]): Active
Activity (MDA-MB-231 [5]): Active
Activity (MDA-MB-231 [6]): Active
Activity (MDA-MB-231 [7]): Active
Activity (MDA-MB-231 [13]): Active
Activity (MDA-MB-231 [14]): Active
Activity (MDA-MB-231 [15]): Active
Activity (MDA-MB-231 [16]): Dose-dependent-effect
Activity (MDA-MB-231 [17]): Dose-dependent-effect
Activity (MDA-MB-231 [18]): 90.4%
Activity (MDA-MB-231 [19]): 92.8%

— ChEMBL document CHEMBL6096661, “Synthesis, biological evaluation and mechanism study of a novel indole-pyridine chalcone derivative as antiproliferative agent against tumor cells through dual targeting tubulin and HK2” (Eur J Med Chem, 2025)
